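Results reflect a 48-hour exposure of cells in 96-well plates to compound at five concentrations. Here, GI50 denotes the concentration required for 50% inhibition of growth.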 Calls of active or inactive are those of the source. Rule as the data show it: active = GI50 up to about 1.1 µM and inactive = higher.
What was measured:
Test in all cases: NCI tumour cell line growth inhibition, 48 h
[1] = tested on: OVCAR-8
[2] = tested on: A498
[3] = tested on: NCI-H522
[4] = tested on: OVCAR-5
[5] = tested on: SK-MEL-2
[6] = tested on: U-251
[7] = tested on: MDA-MB-231
[8] = tested on: SNB-19
[9] = tested on: Malme-3M
[10] = tested on: CCRF-CEM
[11] = tested on: COLO 205
[12] = tested on: HT-29
[13] = tested on: SK-MEL-5
[14] = tested on: NCI/ADR-RES
[15] = tested on: UACC-257
[16] = tested on: 786-0
[17] = tested on: OVCAR-4

SMILES	GI50 [1]	GI50 [2]	GI50 [3]	GI50 [4]	GI50 [5]	GI50 [6]	GI50 [7]	GI50 [8]	GI50 [9]	GI50 [10]	GI50 [11]	GI50 [12]	GI50 [13]	GI50 [14]	GI50 [15]	GI50 [16]	GI50 [17]
COc1ccccc1NC(=O)O/N=C(/Cl)C(C)C	15 µM (inactive)	15.6 µM (inactive)	1.81 µM (inactive)	16.3 µM (inactive)	16.4 µM (inactive)	16.7 µM (inactive)	7.19 µM (inactive)	30.9 µM (inactive)	2.78 µM (inactive)	0.977 µM (active)	2.4 µM (inactive)	3.49 µM (inactive)	11.8 µM (inactive)	15.3 µM (inactive)	13.7 µM (inactive)	11.9 µM (inactive)	
Oc1cc(Br)cc2cc(Br)cnc12	2.96 µM (inactive)	3.4 µM (inactive)	2.3 µM (inactive)				12.2 µM (inactive)	3.33 µM (inactive)	2.4 µM (inactive)	1.83 µM (inactive)	32.3 µM (inactive)	27.5 µM (inactive)	2.48 µM (inactive)	2.72 µM (inactive)	3.21 µM (inactive)	13.8 µM (inactive)	1.39 µM (inactive)
COc1cccc(/C=N/NC(=O)CSCC(=O)N/N=C/c2cccc(OC)c2OC)c1OC	> 100 µM (inactive)	51.2 µM (inactive)	> 100 µM (inactive)	> 100 µM (inactive)	> 100 µM (inactive)	> 100 µM (inactive)	> 100 µM (inactive)	> 100 µM (inactive)	> 100 µM (inactive)		> 100 µM (inactive)	> 100 µM (inactive)	58.3 µM (inactive)	> 100 µM (inactive)	> 100 µM (inactive)	> 100 µM (inactive)	> 100 µM (inactive)
C[N+]12C=CC=C1C(N1CCCC1)c1scc(-c3ccccc3)c12 (stereo not drawn)	22.5 µM (inactive)	38.5 µM (inactive)	3.28 µM (inactive)	64.1 µM (inactive)	6.78 µM (inactive)	5.92 µM (inactive)	37.8 µM (inactive)	10.6 µM (inactive)	11.8 µM (inactive)	22.4 µM (inactive)	15.1 µM (inactive)	8.65 µM (inactive)	11.9 µM (inactive)	> 100 µM (inactive)		47.4 µM (inactive)	
O=c1c2cccnc2n2n1Cc1ccccc1C2	> 100 µM (inactive)	> 100 µM (inactive)	> 100 µM (inactive)	> 100 µM (inactive)		> 100 µM (inactive)	> 100 µM (inactive)		> 100 µM (inactive)	> 100 µM (inactive)		> 100 µM (inactive)	> 100 µM (inactive)	> 100 µM (inactive)	> 100 µM (inactive)	> 100 µM (inactive)	> 100 µM (inactive)
N=C(N)NCCCC(NC(=O)OCCCCn1ccc(N)nc1=O)C(=O)O (stereo not drawn)		> 100 µM (inactive)		> 100 µM (inactive)	> 100 µM (inactive)	> 100 µM (inactive)	> 100 µM (inactive)	> 100 µM (inactive)		> 100 µM (inactive)	> 100 µM (inactive)	> 100 µM (inactive)		> 100 µM (inactive)	> 100 µM (inactive)	> 100 µM (inactive)	> 100 µM (inactive)
O=C1/C(=C/c2ccc(Cl)cc2)NC(=S)N1CN1CCCCC1	36.7 µM (inactive)	61.5 µM (inactive)	18 µM (inactive)	37.5 µM (inactive)	73.1 µM (inactive)	47.2 µM (inactive)	49.9 µM (inactive)	17.7 µM (inactive)	21.5 µM (inactive)	17.8 µM (inactive)	28 µM (inactive)	15.8 µM (inactive)	31 µM (inactive)	19.3 µM (inactive)		30.2 µM (inactive)	
CC1(C)C=Cc2c(cc(O)c3c(=O)c4cc(Cl)ccc4[nH]c23)O1	3.98 µM (inactive)		3.29 µM (inactive)	1.91 µM (inactive)	2.69 µM (inactive)	2.74 µM (inactive)	3.33 µM (inactive)	2.62 µM (inactive)	2.24 µM (inactive)	3.08 µM (inactive)	4.43 µM (inactive)	2.4 µM (inactive)	1.92 µM (inactive)	1.68 µM (inactive)	2.87 µM (inactive)	3.84 µM (inactive)	3.24 µM (inactive)
CC(=O)O[C@H]1[C@@H](OC2CCCC2(c2ccccc2)c2ccccc2)O[N+]([O-])=C[C@@]12COCc1cc3c(cc12)OCO3 (stereo partly drawn)	4.24 µM (inactive)	1.99 µM (inactive)	1.98 µM (inactive)	18.7 µM (inactive)	4.17 µM (inactive)	7.48 µM (inactive)	6.12 µM (inactive)	15.1 µM (inactive)		2.83 µM (inactive)	> 32.4 µM (inactive)	2.77 µM (inactive)	4.6 µM (inactive)	3.52 µM (inactive)	18.2 µM (inactive)	6.58 µM (inactive)	1.49 µM (inactive)
Cc1cccc2nc3cccc(C(=O)NCCC[N+](C)(CCCNC(=O)c4cccc5nc6cccc(C)c6nc45)Cc4ccc([N+](=O)[O-])n4C)c3nc12	0.49 µM (active)		4.13 µM (inactive)	6.68 µM (inactive)	8.32 µM (inactive)	0.456 µM (active)	17.5 µM (inactive)	13.1 µM (inactive)	35.9 µM (inactive)	0.94 µM (active)	3.58 µM (inactive)	0.396 µM (active)	2.89 µM (inactive)	> 32.3 µM (inactive)	> 31.6 µM (inactive)	0.32 µM (active)	27.3 µM (inactive)
Cc1ccc(O)c(Cc2nc3ccccc3nc2-c2cccc(Cl)c2)c1	> 100 µM (inactive)		20.3 µM (inactive)	> 100 µM (inactive)	46.3 µM (inactive)	35.4 µM (inactive)	46.3 µM (inactive)	21 µM (inactive)	> 100 µM (inactive)		58.6 µM (inactive)	44.3 µM (inactive)	40.2 µM (inactive)	44.1 µM (inactive)	74.6 µM (inactive)	> 100 µM (inactive)	10.6 µM (inactive)
COc1ccc(/N=C(/C[S+]([O-])c2ccc(C)cc2)C(F)(F)F)cc1 (stereo not drawn)	> 100 µM (inactive)		> 100 µM (inactive)	> 100 µM (inactive)	50.2 µM (inactive)	> 100 µM (inactive)	> 100 µM (inactive)	71.8 µM (inactive)	> 100 µM (inactive)	61.9 µM (inactive)	> 100 µM (inactive)	> 100 µM (inactive)	> 100 µM (inactive)	> 100 µM (inactive)	> 100 µM (inactive)	> 100 µM (inactive)	59.7 µM (inactive)
Cc1ccc(O)c(C(c2cc(C)ccc2O)c2cc([N+](=O)[O-])ccc2O)c1	3.66 µM (inactive)	17.2 µM (inactive)	13.2 µM (inactive)	14.3 µM (inactive)	13.7 µM (inactive)	15.7 µM (inactive)	0.0604 µM (active)	> 10 µM (inactive)		13.6 µM (inactive)	17.8 µM (inactive)	15 µM (inactive)	38.6 µM (inactive)	21.1 µM (inactive)	16.6 µM (inactive)	16.1 µM (inactive)	11.8 µM (inactive)
Fc1ccc2c3c([nH]c2c1)CCNC3	> 100 µM (inactive)	20.4 µM (inactive)		> 100 µM (inactive)		> 100 µM (inactive)	> 100 µM (inactive)	> 100 µM (inactive)	> 100 µM (inactive)	> 100 µM (inactive)	> 100 µM (inactive)	> 100 µM (inactive)	> 100 µM (inactive)	> 100 µM (inactive)	> 100 µM (inactive)	> 100 µM (inactive)	> 100 µM (inactive)
C=CCN1CCN([C@H](c2ccc(C(=O)N(CC)CC)cc2)c2cccc(OC)c2)CC1	> 25 µM (inactive)	> 25 µM (inactive)	> 25 µM (inactive)	> 25 µM (inactive)	> 25 µM (inactive)	> 25 µM (inactive)	> 25 µM (inactive)	> 25 µM (inactive)	> 25 µM (inactive)		> 25 µM (inactive)	> 25 µM (inactive)	> 25 µM (inactive)	> 25 µM (inactive)		> 25 µM (inactive)	> 25 µM (inactive)
CCN(CC)CCCNc1ccc([N+](=O)[O-])c2nc3ccccc3c(N)c12	0.65 µM (active)	2.32 µM (inactive)		0.802 µM (active)	1.14 µM (inactive)		0.442 µM (active)	0.929 µM (active)	2.48 µM (inactive)	0.45 µM (active)		0.437 µM (active)	0.241 µM (active)	0.668 µM (active)	4.88 µM (inactive)	0.445 µM (active)	0.627 µM (active)
CC(=O)OCC(OC(C)=O)C(OC(C)=O)C(OC(C)=O)C(/C=N\Nc1nc2ccccc2c(=O)[nH]1)=N/Nc1nc2ccccc2c(=O)[nH]1 (stereo not drawn)	> 100 µM (inactive)		> 100 µM (inactive)	> 100 µM (inactive)	> 100 µM (inactive)	> 100 µM (inactive)	> 100 µM (inactive)	> 100 µM (inactive)	> 100 µM (inactive)	> 100 µM (inactive)	> 100 µM (inactive)	> 100 µM (inactive)	> 100 µM (inactive)	> 100 µM (inactive)	> 100 µM (inactive)	> 100 µM (inactive)	
Oc1ccc(/N=N/c2ccc(Cl)cc2)cc1	16.6 µM (inactive)	17.3 µM (inactive)	11.6 µM (inactive)	17.4 µM (inactive)	14.2 µM (inactive)	15.4 µM (inactive)	10.8 µM (inactive)	18 µM (inactive)		4.63 µM (inactive)	18.4 µM (inactive)	18.3 µM (inactive)	11.7 µM (inactive)	18.1 µM (inactive)	15.8 µM (inactive)	17.3 µM (inactive)	14.9 µM (inactive)
